Data taken from patent US20110206756A1, “DITHI[…] CHELATES AND METHODS OF MAKING AND USING THEREOF” (UNIVERSITY OF UTAH RESEARCH FOUNDATION, priority 2008, published 2011).

Experiments:
[1] = system: HL-60 myeloid leukemia cell line; conditions: in P123 Pluronic micelles; for cell growth inhibition compared with vehicle: HL-60, up to 0.24 μM, 3 days
Protocol: The in vitro anti-leukemic activity of both chelates using the HL-60 myeloid leukemia cell line was compared. […] The DETC/metal chelates were initially dissolved in dimethylsulfoxide (DMSO). This 2 mM DETC/metal stock in DMSO was then mixed with a polymer stock and micellization was allowed to occur at room temperature. The final polymer concentration was 2% by weight. […] DETC/metal chelates were added at concentrations of up to 0.24 μM. Cell growth was assessed after 3 days using the MTS assay.

HL-60 cells [2] = assay: Leukemia cell growth in vivo, HL-60 flank tumors in mice; set-up: species or system NOD/SCID IL2Rγ^null mice
Source text: In another preliminary experiment, the effect of DETC/metal chelates on leukemia cell growth in vivo was studied. NOD/SCID IL2Rγ^null mice were implanted bilaterally in the flanks with 19×10^6 HL-60 cells. […] The experiment was terminated on day 15. At that point 3 out of 4 control animals had died and the one remaining alive had tumor volumes that had exceeded 10% of initial body weight. None of the animals treated with DETC/Cu died.

[3] = system: prostate cancer cell line PPC-1; conditions: read-out: 50% growth inhibitory concentration (IC50); PPC-1, two days, in P123 micelles
Protocol: (§1) The effect of DETC/Cu^2+ chelates on the growth of 3 solid tumor cell lines in vitro was studied. The cell lines studied were the colon cancer cell line DLD-1, the prostate cancer cell line PPC-1 and the hepatoma cell line Hep-3B. […] Cells in logarithmic growth phase were cultured in RPMI1640/10% FBS media at a concentration of 120,000 cells/mL. DETC/Cu^2+ was added to the cells at concentrations ranging from 0 to 1 μM. […] Two days after drug addition, cell growth was assayed using the CellTiter 96 assay from Promega (Madison, Wis.) using the manufacturer's protocol.

[4] = system: colon cancer cell line DLD-1; conditions: read-out: 50% growth inhibitory concentration (IC50); DLD-1, two days, in P123 micelles
Protocol: as §1

HL-60 cells [5] = conditions: HL-60, 0.32 μM, 24 hours, average and SEM of 3 experiments; controls 7±1%
Protocol: HL-60 cells were treated with DETC/Cu^2+ at a concentration of 0.32 μM for 24 hours upon which the number of apoptotic cells was determined using propidium iodide (PI) staining and flow cytometry. Analysis for the presence of apoptotic cells was modeled using the ModFit software.

[6] = system: hepatoma cell line Hep-3B; conditions: read-out: 50% growth inhibitory concentration (IC50), two days, in P123 micelles
Protocol: as §1

Row | Compound | cell growth inhibition compared with vehicle [1] | toxicity (HL-60 cells [2]; 2 μmol/kg intravenously every other day, in P123 micelles) | tumor volume, tumor growth (HL-60 cells [2]; after 12 days of therapy, 2 μmol/kg i.v. every other day, versus P123 micelle controls) | animals that died (HL-60 cells [2]; day 15, 4 mice per group, 3 out of 4 controls died) | IC50 [3] [nM] | IC50 [4] [nM] | apoptotic cells (HL-60 cells [5]) [%] | IC50 [6] [nM] | relative potency of growth inhibition ([1]; HL-60, 3 days)
1 | CCN(CC)C(=S)[S-].[Ag+] [DETC/Ag^+, silver salt of diethyldithiocarbamate] | growth inhibition to a much greater extent | – | – | – | – | – | – | – | –
2 | CCN(CC)C(=S)[S-].CCN(CC)C(=S)[S-].[Cu+2] [DETC/Cu^2+, copper salt of diethyldithiocarbamate] | growth inhibition to a much greater extent | No obvious toxicity | delay in tumor growth | None | 180 | 370 | 16±2 | 130 | more potent than the DETC/Ag^+ chelate
